The values that follow come from patent JP2009062322A, “肝実質細胞再生促進剤” (Minophagen Pharmaceutical Co Ltd, priority 2007, dated 2009).

Each structure is given as a SMILES string. pEC50: −log10 of the molar value.

In this test the test system is primary cultured hepatic parenchymal cells (初代培養肝実質細胞). As to the kind of experiment: Proliferation of primary cultured rat hepatic parenchymal cells: DNA synthesis (3H-thymidine incorporation) and number of nuclei. Conditions: for pEC50: Rattus norvegicus; for proliferation-promoting effect: compound alone, low-density culture, 4 h, result in words. On the technique in general: Incorporation of labelled thymidine or its analogues reports DNA synthesis.

A word on the pEC50: it is the EC50 on a negative log10 scale, so that one unit is a factor of ten. Read a high pEC50 as a low EC50. Turning to `CC1(C)[C@@H](O)CC[C@]2(C)[C@H]3CC=C4[C@@H]5C[C@@](C)(C(=O)O)CC[C@]5(C)CC[C@@]4(C)[C@]3(C)CC[C@@H]12` [化合物(11), 11−デオキソグリチルレチン酸], the pEC50 was 10.40 and the proliferation-promoting effect result is “用量依存的に促進効果を示した”. Further, the “proliferation-promoting effect relative to glycyrrhetinic acid (by EC50)” value (fold stronger than glycyrrhetinic acid (グリチルレチン酸), by EC50 value) is on record as ~100 倍 (fold).

Turning to `CC1(C)[C@@H](O)CC[C@]2(C)[C@H]3C(=O)C=C4[C@@H]5C[C@@](C)(C(=O)O)CC[C@]5(C)CC[C@@]4(C)[C@]3(C)CC[C@@H]12` [グリチルレチン酸, reference compound], the pEC50 is 8.30 and the proliferation-promoting effect entry was “用量依存的に促進効果を示した”.

As to `C[C@]1(C(=O)O)CC[C@]2(C)CC[C@]3(C)C(=CC[C@@H]4[C@@]5(C)CC[C@H](O)[C@](C)(CO)[C@@H]5CC[C@]43C)[C@@H]2C1` [化合物(12)], the negative logarithm of the EC50 (pEC50) was 8.40 and the proliferation-promoting effect result was “用量依存的に促進効果を示した”.
